Laboratory results from patent US20250344734A1, “UNSATURATED FATTY ACIDS AND THEIR USE TO MODIFY TASTE” (Firmenich Incorporated, priority 2022, published 2025).

Key:
Format in all cases: cell-based
T2R01 (TAS2R01) = target: T1, T2R01 (TAS2R01) (Homo sapiens, UniProt Q9NYW7); assay: FLIPR calcium assay, block of bitter agonist response, T2R01; details: unsaturated fatty acid concentration of 200 µM, cells stimulated with known bitter agonist, read-out: percentage block of cellular response over baseline, 01
T1 construct: expressed in transfected cells; host or cells: cells expressing a promiscuous G protein (e.g., G16g44)
T1 sequence (Q9NYW7 1-299): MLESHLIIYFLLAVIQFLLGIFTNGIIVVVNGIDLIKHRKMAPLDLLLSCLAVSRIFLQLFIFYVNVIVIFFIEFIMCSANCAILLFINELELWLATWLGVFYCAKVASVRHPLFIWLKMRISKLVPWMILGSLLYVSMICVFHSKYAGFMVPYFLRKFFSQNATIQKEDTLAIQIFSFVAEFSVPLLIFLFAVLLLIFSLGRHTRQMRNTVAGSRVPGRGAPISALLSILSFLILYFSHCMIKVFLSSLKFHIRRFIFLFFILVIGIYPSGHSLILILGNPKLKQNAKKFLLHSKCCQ
Method: (§1) Cells expressing a promiscuous […] (e.g., G16g44) were transfected with vectors encoding 18 functional bitter receptor cDNAs, with one receptor per transfection. The cells were transfected directly in 384-well format high-density plates and incubated for 28 hours. Later, cells were loaded with the Ca-specific dye Fluo4-AM. After an incubation of 60 minutes, excess dye is washed off, and cells are stimulated with a known bitter agonist for each receptor and various unsaturated fatty acids. Changes in intracellular fluorescence are recorded using a FLIPR instrument. Bitter antagonists and corresponding receptors are identified based on percentage inhibition of agonist's activity on a given receptor.
(§2) The above protocol was carried out using 16 different unsaturated fatty acids. A particular T2R receptor was identified as being antagonized by a particular unsaturated fatty acid if it triggered a >25% block of agonist's cellular response at 200 μM concentration of unsaturated fatty acid. […] Table 2 indicates the sixteen (16) compounds tested by their compound number from Table 1 above. The 18 bitter taste receptors screened are the human bitter taste receptors we named. T2R01 (TAS2R01), T2R03 (TAS2R03), T2R04 (TAS2R04), T2R07 (TAS2R07), T2R08 (TAS2R08), T2R09 (TAS2R09), T2R10 (TAS2R10), T2R13 (TAS2R13), T2R14 (TAS2R14), T2R16 (TAS2R16), T2R54 (TAS2R39, T2R61 (TAS2R43), T2R63 (TA2R20), T2R64 (TAS2R31), T2R65 (TAS2R19), T2R67 (TAS2R50), T2R71 (TAS2R41), and T2R75 (TAS2R46). The corresponding IUPHAR nomenclature for each receptor is given in parenthesis. In Table 2, these receptors are identified by the last two digits. For example, T2R01 is indicated as 01. Table 2 reports the percentage block of cellular response over baseline at an unsaturated fatty acid concentration of 200 µM.

T2R08 (TAS2R08) = target: T2, T2R08 (TAS2R08) (Homo sapiens, UniProt Q9NYW2); assay: FLIPR calcium assay, block of bitter agonist response, T2R08; details: unsaturated fatty acid concentration of 200 µM, cells stimulated with known bitter agonist, read-out: percentage block of cellular response over baseline, 08
T2 construct: expressed in transfected cells; host or cells: cells expressing a promiscuous G protein (e.g., G16g44)
T2 sequence (Q9NYW2 1-309): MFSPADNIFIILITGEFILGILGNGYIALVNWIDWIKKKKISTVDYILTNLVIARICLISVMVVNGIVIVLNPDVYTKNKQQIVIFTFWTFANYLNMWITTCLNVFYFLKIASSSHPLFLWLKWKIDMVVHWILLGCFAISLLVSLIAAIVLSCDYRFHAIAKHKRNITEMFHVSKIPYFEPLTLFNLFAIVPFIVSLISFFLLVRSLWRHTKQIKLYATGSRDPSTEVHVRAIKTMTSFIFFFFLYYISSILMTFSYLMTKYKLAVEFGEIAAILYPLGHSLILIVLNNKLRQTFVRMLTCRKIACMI
Method: as §1, §2

T2R10 (TAS2R10) = target: T3, T2R10 (TAS2R10) (Homo sapiens, UniProt Q9NYW0); assay: FLIPR calcium assay, block of bitter agonist response, T2R10; details: unsaturated fatty acid concentration of 200 µM, cells stimulated with known bitter agonist, read-out: percentage block of cellular response over baseline, 10
T3 construct: expressed in transfected cells; host or cells: cells expressing a promiscuous G protein (e.g., G16g44)
T3 sequence (Q9NYW0 1-307): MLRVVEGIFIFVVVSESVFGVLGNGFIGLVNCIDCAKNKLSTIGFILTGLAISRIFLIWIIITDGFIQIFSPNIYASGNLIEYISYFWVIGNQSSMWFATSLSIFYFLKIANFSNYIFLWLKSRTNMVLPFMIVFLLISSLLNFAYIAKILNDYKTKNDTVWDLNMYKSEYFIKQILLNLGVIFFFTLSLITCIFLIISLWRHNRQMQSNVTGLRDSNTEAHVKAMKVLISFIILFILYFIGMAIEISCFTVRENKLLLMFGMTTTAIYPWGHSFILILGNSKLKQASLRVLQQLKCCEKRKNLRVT
Method: as §1, §2

T2R14 (TAS2R14) = target: T4, T2R14 (TAS2R14) (Homo sapiens, UniProt Q9NYV8); assay: FLIPR calcium assay, block of bitter agonist response, T2R14; details: unsaturated fatty acid concentration of 200 µM, cells stimulated with known bitter agonist, read-out: percentage block of cellular response over baseline, 14
T4 construct: expressed in transfected cells; host or cells: cells expressing a promiscuous G protein (e.g., G16g44)
T4 sequence (Q9NYV8 1-317): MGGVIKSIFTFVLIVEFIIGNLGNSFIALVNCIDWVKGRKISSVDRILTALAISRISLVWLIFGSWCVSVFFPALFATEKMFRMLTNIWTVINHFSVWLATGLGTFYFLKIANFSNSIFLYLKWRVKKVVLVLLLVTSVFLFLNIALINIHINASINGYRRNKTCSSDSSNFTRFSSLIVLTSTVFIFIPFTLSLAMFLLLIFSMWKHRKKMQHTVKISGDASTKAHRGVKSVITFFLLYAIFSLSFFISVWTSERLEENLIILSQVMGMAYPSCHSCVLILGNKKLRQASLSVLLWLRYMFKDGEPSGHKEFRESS
Method: as §1, §2

T2R54 (TAS2R39) = target: T5, T2R54 (TAS2R39 (Homo sapiens, UniProt P59534)); assay: FLIPR calcium assay, block of bitter agonist response, T2R54; details: unsaturated fatty acid concentration of 200 µM, cells stimulated with known bitter agonist
T5 construct: expressed in transfected cells; host or cells: cells expressing a promiscuous G protein (e.g., G16g44)
T5 sequence (P59534 1-338): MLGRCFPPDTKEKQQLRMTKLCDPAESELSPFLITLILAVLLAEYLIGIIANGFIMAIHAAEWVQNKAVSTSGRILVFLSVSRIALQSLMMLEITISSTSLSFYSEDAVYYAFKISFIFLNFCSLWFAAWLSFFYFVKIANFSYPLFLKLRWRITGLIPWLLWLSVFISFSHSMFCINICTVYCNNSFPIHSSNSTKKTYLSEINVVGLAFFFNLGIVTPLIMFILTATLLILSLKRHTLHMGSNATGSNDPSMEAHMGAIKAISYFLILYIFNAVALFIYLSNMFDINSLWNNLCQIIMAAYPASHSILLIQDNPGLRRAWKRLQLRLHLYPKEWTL
Method: as §1, §2

T2R75 (TAS2R46) = target: T6, T2R75 (TAS2R46) (Homo sapiens, UniProt P59540); assay: FLIPR calcium assay, block of bitter agonist response, T2R75; details: unsaturated fatty acid concentration of 200 µM, cells stimulated with known bitter agonist
T6 construct: expressed in transfected cells; host or cells: cells expressing a promiscuous G protein (e.g., G16g44)
T6 sequence (P59540 1-309): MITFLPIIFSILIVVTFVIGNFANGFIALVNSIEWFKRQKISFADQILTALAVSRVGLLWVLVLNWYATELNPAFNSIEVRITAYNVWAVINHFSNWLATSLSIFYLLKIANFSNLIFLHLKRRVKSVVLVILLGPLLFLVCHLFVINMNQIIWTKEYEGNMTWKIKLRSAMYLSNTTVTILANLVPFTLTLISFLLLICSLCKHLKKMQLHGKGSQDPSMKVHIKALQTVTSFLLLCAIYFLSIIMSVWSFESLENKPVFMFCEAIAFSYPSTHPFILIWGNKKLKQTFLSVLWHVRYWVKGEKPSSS
Method: as §1, §2

Row | SMILES | inhibition at 200 µM (T2R01 (TAS2R01)) | inhibition at 200 µM (T2R08 (TAS2R08)) | inhibition at 200 µM (T2R10 (TAS2R10)) | inhibition at 200 µM (T2R14 (TAS2R14)) | percentage block of cellular response over baseline, 54 (T2R54 (TAS2R39)) | percentage block of cellular response over baseline, 75 (T2R75 (TAS2R46))
1 | C=CCCCCCCCC(=O)O [Compound 117] | 50% | > 55% | > 70% | > 25% | >80% | 40%
2 | CC(C)/C=C/CCCCC(=O)O [Compound 123] |  | > 25% | > 30% | > 25% |  | 
3 | CCCCCCCC/C=C/C(=O)O [Compound 106] | 80% | > 70% | > 95% | 80% |  | 
4 | C=CCCCCCCCCCCC(=O)O [Compound 120] | > 50% | 50% | > 95% | > 40% |  | 
5 | C=CCCCCCCCCC(=O)O [Compound 118] | > 70% | 65% | > 75% | > 65% | >80% | 75%
6 | CCCCCCC/C=C/C(=O)O [Compound 105] | > 60% | > 55% | > 95% | 50% |  | 
7 | CCCCCCCCC/C=C/C(=O)O [Compound 107] | 90% | > 70% | > 95% | > 90% |  | 
8 | CCCCCC/C=C/C(=O)O [Compound 104] | > 35% | > 40% | > 60% | > 40% |  | 
9 | C=CCCCCCC(=O)O [Compound 115] |  |  | > 25% |  |  | 
10 | CC(C)=CCCC(C)CC(=O)O (stereo not drawn) [Compound 127] | > 30% |  | 50% |  | >90% | 35%
11 | CCC/C=C/C(=O)O [Compound 101] |  | > 25% | > 25% |  |  | 
12 | CC(C)=CCCC(C)=CC(=O)O [Compound 128] | 50% | > 25% | > 90% |  | >80% | 40%
13 | C=CCCCCCCC(=O)O [Compound 116] | > 25% | > 40% | > 35% |  |  | 
14 | CCCCCC/C=C\CCCC(=O)O [Compound 124] | 55% | > 60% | > 80% | > 50% |  | 
